Assay results reported in patent US10183914B2 (BAYER CROPSCIENCE AKTIENGESELLSCHAFT, priority 2014, dated 2019).

Tests used:
[1] = test system: Triticum aestivum (spring); experiment: Post-emergence herbicidal effect and crop plant compatibility; assay type: in vivo; settings: visual scoring after about 3 weeks
How it was run: (§1)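 After growing for 2 to 3 weeks from seed in sandy loam, plants at the one-leaf stage get an aqueous spray of the formulated compound containing 0.2% wetting agent. Around three weeks later each pot is assessed by eye, expressed as percent effect compared with untreated plants.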

[2] = test system: Oryza sativa; experiment: as above; assay type: in vivo; settings: visual scoring after about 3 weeks
How it was run: as §1

[3] = test system: Zea mays; experiment: as above; assay type: in vivo; settings: 80 g/ha, visual scoring after about 3 weeks
How it was run: as §1

[4] = logp (HCOOH), physicochemical characterization
[5] = test system: Oryza sativa; experiment: Pre-emergence herbicidal effect and crop plant compatibility; assay type: in vivo; settings: 80 g/ha, 3 weeks
How it was run: (§2)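 Pre-emergence greenhouse test: seeds sown in sandy loam, compounds (WP or EC) sprayed onto covering soil as aqueous suspension/emulsion at 600 to 800 L/ha water with 0.2% wetting agent. Damage scored visually after 3 weeks versus untreated controls as percent efficacy (100% = plants dead).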

[6] = test system: Zea mays; experiment: as above; assay type: in vivo; settings: 80 g/ha, 3 weeks
How it was run: as §2

[7] = test system: Echinochloa crus-galli; experiment: Post-emergence herbicidal effect; assay type: in vivo; settings: visual scoring after about 3 weeks
How it was run: as §1

[8] = test system: Avena fatua; experiment: Post-emergence herbicidal effect; assay type: in vivo; settings: 320 g/ha, visual scoring after about 3 weeks
How it was run: as §1

[9] = test system: Ipomoea purpurea; experiment: Post-emergence herbicidal effect; assay type: in vivo; settings: scoring after about 3 weeks
How it was run: as §1

[10] = test system: Viola tricolor; experiment: Pre-emergence herbicidal effect; assay type: in vivo; settings: 3 weeks
How it was run: as §2

[11] = test system: Lolium multiflorum; experiment: Pre-emergence herbicidal effect; assay type: in vivo; settings: 3 weeks
How it was run: as §2

[12] = test system: Veronica persica; experiment: Pre-emergence herbicidal effect; assay type: in vivo; settings: 3 weeks
How it was run: as §2

[13] = test system: Matricaria inodora; experiment: Pre-emergence herbicidal effect; assay type: in vivo; settings: 3 weeks
How it was run: as §2

[14] = test system: Echinochloa crus-galli; experiment: Pre-emergence herbicidal effect; assay type: in vivo; settings: 3 weeks
How it was run: as §2

[15] = test system: Alopecurus myosuroides; experiment: Pre-emergence herbicidal effect; assay type: in vivo; settings: 3 weeks
How it was run: as §2

[16] = test system: Polygonum convolvulus; experiment: Pre-emergence herbicidal effect; assay type: in vivo; settings: 3 weeks
How it was run: as §2

[17] = test system: Setaria viridis; experiment: Pre-emergence herbicidal effect; assay type: in vivo; settings: 3 weeks
How it was run: as §2

[18] = test system: Stellaria media; experiment: Pre-emergence herbicidal effect; assay type: in vivo; settings: 3 weeks
How it was run: as §2

[19] = test system: Avena fatua; experiment: Pre-emergence herbicidal effect; assay type: in vivo; settings: 3 weeks
How it was run: as §2

[20] = test system: Amaranthus retroflexus; experiment: Pre-emergence herbicidal effect; assay type: in vivo; settings: 3 weeks
How it was run: as §2

[21] = test system: Triticum aestivum (spring); experiment: Pre-emergence herbicidal effect and crop plant compatibility; assay type: in vivo; settings: 3 weeks
How it was run: as §2

[22] = test system: Alopecurus myosuroides; experiment: Post-emergence herbicidal effect; assay type: in vivo; settings: 320 g/ha, visual scoring after about 3 weeks
How it was run: as §1

[23] = test system: Setaria viridis; experiment: Post-emergence herbicidal effect; assay type: in vivo; settings: 320 g/ha (dose by row order of upper half), scoring after about 3 weeks
How it was run: as §1

[24] = test system: Cyperus esculentus; experiment: Pre-emergence herbicidal effect; assay type: in vivo; settings: 3 weeks
How it was run: as §2

[25] = 320 g/ha (dose by row order of upper half)

Structure (SMILES) | post-emergence efficacy TRZAS ([1]; 80 g/ha) [%] | post-emergence efficacy TRZAS ([1]; 320 g/ha) [%] | post-emergence efficacy ORYSA ([2]; 80 g/ha) [%] | post-emergence efficacy ORYSA ([2]; 320 g/ha) [%] | post-emergence efficacy ZEAMX [3] [%] | ZEAMX herbicidal activity in percent [6] [%] | post-emergence efficacy ECHCG ([7]; 80 g/ha) [%] | post-emergence efficacy ECHCG ([7]; 320 g/ha) [%] | post-emergence efficacy PHBPU [9, 25] [%] | VIOTR herbicidal activity in percent ([10]; 80 g/ha) [%] | VIOTR herbicidal activity in percent ([10]; 320 g/ha) [%] | LOLMU herbicidal activity in percent ([11]; 320 g/ha) [%] | VERPE herbicidal activity in percent ([12]; 80 g/ha) [%] | VERPE herbicidal activity in percent ([12]; 320 g/ha) [%] | MATIN herbicidal activity in percent ([13]; 80 g/ha) [%] | MATIN herbicidal activity in percent ([13]; 320 g/ha) [%] | ECHCG herbicidal activity in percent ([14]; 80 g/ha) [%] | ECHCG herbicidal activity in percent ([14]; 320 g/ha) [%] | ALOMY herbicidal activity in percent ([15]; 320 g/ha) [%] | POLCO herbicidal activity in percent ([16]; 80 g/ha) [%] | also measured
Cc1ccc2c(c1)[C@H](Nc1ncc3c(n1)CC(C)CC3=O)[C@@H](C)C2 (some centres unmarked) [2.44] | 0 | 0 | 0 | 0 | 10 | 10 | 100 | 100 | 100 | 100 | 100 | 100 | 100 | 100 | 90 | 100 | 90 | 100 | 100 | 90 | logp (HCOOH) [4]: oily; logp (HCOOH): 3.90;; ORYSA herbicidal activity in percent [5]: 20%; post-emergence efficacy AVEFA [8]: 90%; post-emergence efficacy PHBPU ([9]; 80 g/ha (dose by row order of upper half)): 100%; LOLMU herbicidal activity in percent ([11]; 80 g/ha): 100%; ALOMY herbicidal activity in percent ([15]; 80 g/ha): 80%; POLCO herbicidal activity in percent ([16]; 320 g/ha): 100%; SETVI herbicidal activity in percent ([17]; 80 g/ha): 100%; SETVI herbicidal activity in percent ([17]; 320 g/ha): 100%; STEME herbicidal activity in percent ([18]; 80 g/ha): 100%; STEME herbicidal activity in percent ([18]; 320 g/ha): 100%; AVEFA herbicidal activity in percent ([19]; 80 g/ha): 0%; AVEFA herbicidal activity in percent ([19]; 320 g/ha): 80%; AMARE herbicidal activity in percent ([20]; 80 g/ha): 100%; AMARE herbicidal activity in percent ([20]; 320 g/ha): 100%
O=C1CCCc2nc(N[C@@H]3CCCc4c(F)cccc43)ncc21 [2.13] | 10 | 20 | 0 | 0 | 10 | 0 | 90 | 100 | 100 | 100 | 100 | 100 | 100 | 100 | 100 | 100 | 100 | 100 | 100 | 100 | TRZAS herbicidal activity in percent ([21]; 80 g/ha): 0%; TRZAS herbicidal activity in percent ([21]; 320 g/ha): 10%; post-emergence efficacy ALOMY [22]: 90%; post-emergence efficacy SETVI [23]: 100%; POLCO herbicidal activity in percent ([16]; 320 g/ha): 100%; CYPES herbicidal activity in percent ([24]; 80 g/ha): 100%; CYPES herbicidal activity in percent ([24]; 320 g/ha): 100%; SETVI herbicidal activity in percent ([17]; 80 g/ha): 100%; STEME herbicidal activity in percent ([18]; 80 g/ha): 100%; STEME herbicidal activity in percent ([18]; 320 g/ha): 100%; AVEFA herbicidal activity in percent ([19]; 320 g/ha): 90%; AMARE herbicidal activity in percent ([20]; 80 g/ha): 100%; AMARE herbicidal activity in percent ([20]; 320 g/ha): 100%
